Measured values: US20240336620A1, “PROTEIN D[…] AND METHODS OF USE” (AnHorn Medicines Co., Ltd., priority 2022, published 2024)

Target: T1, androgen receptor (Homo sapiens, UniProt P10275, T878A)
T1 construct: host or cells: LNCaP·FGC cells
T1 sequence (P10275 1-920 T878A): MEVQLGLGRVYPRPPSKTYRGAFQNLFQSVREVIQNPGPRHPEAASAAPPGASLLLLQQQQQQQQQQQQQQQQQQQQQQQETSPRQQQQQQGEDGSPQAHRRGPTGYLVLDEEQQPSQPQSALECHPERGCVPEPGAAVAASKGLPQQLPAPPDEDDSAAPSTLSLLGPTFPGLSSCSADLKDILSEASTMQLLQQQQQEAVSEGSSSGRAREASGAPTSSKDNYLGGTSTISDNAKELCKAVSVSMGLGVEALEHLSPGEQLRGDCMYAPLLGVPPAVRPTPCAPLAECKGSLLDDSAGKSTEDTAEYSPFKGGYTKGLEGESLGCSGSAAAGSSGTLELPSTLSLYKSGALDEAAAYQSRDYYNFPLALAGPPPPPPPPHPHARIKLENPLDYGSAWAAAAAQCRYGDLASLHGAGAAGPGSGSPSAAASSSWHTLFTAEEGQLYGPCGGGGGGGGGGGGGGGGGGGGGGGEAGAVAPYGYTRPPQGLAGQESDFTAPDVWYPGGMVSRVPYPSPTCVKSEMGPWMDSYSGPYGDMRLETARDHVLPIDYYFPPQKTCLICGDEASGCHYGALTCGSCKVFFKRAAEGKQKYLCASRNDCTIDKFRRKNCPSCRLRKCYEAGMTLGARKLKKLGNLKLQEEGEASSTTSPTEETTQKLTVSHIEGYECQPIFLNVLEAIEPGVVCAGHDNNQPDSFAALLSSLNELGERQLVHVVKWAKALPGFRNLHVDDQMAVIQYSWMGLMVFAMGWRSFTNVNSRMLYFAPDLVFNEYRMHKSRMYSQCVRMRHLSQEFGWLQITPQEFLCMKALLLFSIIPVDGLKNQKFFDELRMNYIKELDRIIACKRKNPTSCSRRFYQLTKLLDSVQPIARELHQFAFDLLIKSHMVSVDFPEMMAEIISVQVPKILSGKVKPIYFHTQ
Experiment: Androgen receptor degradation assay using Western blot analysis
Assay type: cell-based
Conditions: LNCaP·FGC cells, concentration needed for 50% AR degradation, serial dilutions
Experimental: LNCaP·FGC cells (Cat. 60088, Bioresource Collection and Research Center, 15 HsinChu City, Taiwan R.O.C.) grown in RPMI 1640 (Cat. 31800022, Thermo Fisher Scientific, Waltham, Massachusetts, United States) medium supplemented with 10% FBS (Cat. 10437028, Thermo Fisher Scientific, Waltham, Massachusetts, United States), 10 mM HEPES (Cat. 15630080, Thermo Fisher Scientific, Waltham, Massachusetts, United States) and 1 mM sodium pyruvate (Cat. 11360070, Thermo 20 Fisher Scientific, Waltham, Massachusetts, United States) were seeded at 2×10^5 cells per well in 24-well tissue culture plates. […] After the treatment, the cells were harvested, washed by PBS, and lysed with RIPA lysis and extraction buffer (Cat. 25 89900, Thermo Fisher Scientific, Waltham, Massachusetts, United States) supplemented with Halt Protease Inhibitor Cocktail (Cat. 78430, Thermo Fisher Scientific, Waltham, Massachusetts, United States) to collect protein samples. Cells not treated with any of the above-mentioned compounds are used as a negative control.
The protein samples were separated by polyacrylamide gel electrophoresis, and then transferred to a piece of Immuno-Blot PVDF membrane (Cat. 1620177, Bio-Rad Laboratories, Hercules, California, United States). The presence of androgen receptor in the protein samples was detected by standard Western blotting procedure using an anti-AR antibody (1:2000 dilution) (Cat. 5153, Cell Signaling Technology Inc., Danvers, Massachusetts, United States) and a goat anti-rabbit HRP-conjugated secondary antibody (1:5000 dilution) (C04003, Croyez Bioscience Co., Ltd., Taipei City, Taiwan R.O.C.). The internal loading control GAPDH was detected using a mouse monoclonal antibody (1:5000) (GTX627408, GeneTex International Corp., HsinChu City, Taiwan R.O.C.) and a goat anti-mouse HRP-conjugated secondary antibody (1:5000 dilution) (C04001, Croyez Bioscience Co., Ltd., Taipei City, Taiwan R.O.C.). Chemiluminescence signals were developed using Clarity Western ECL substrate (Cat. 1705061, Bio-Rad Laboratories, Hercules, California, United States) and detected with digital imager iBright FL1500 (Invitrogen Corp., Carlsbad, California, United States).
Compounds 1-16 were selected and serial diluted (1Ox) with RPMI medium for treating LNCaP·FGC cells. A calibration curve was determined by the serial diluted samples for each compound, and the concentration needed for 50% AR degradation (AR DC50) for each compound was calculated. “Cpd. ID” indicates the compound ID number in Table 1.

Compared with `Cn1c2c(c3ccc(N4CCN(CC5CN(c6ccc(-c7ccc8c(c7)C(C)(C)C(=O)N8c7ccc(C#N)c(Cl)c7)c(F)n6)C5)CC4)cc31)C(=O)N(C1CCC(=O)NC1=O)C2=O` (stereo not shown) [Compound 1], `CCn1c2c(c3ccc(N4CCN(CC5CN(c6ccc(-c7ccc8c(c7)C(C)(C)C(=O)N8c7ccc(C#N)c(Cl)c7)c(F)n6)C5)CC4)cc31)C(=O)N(C1CCC(=O)NC1=O)C2=O` (stereo not shown) [Compound 12] is lower in DC50: 200 to 1000 nM for the first, < 200 nM for the second.

`Cn1c2c(c3ccc(C4CCN(CC5CCN(c6ccc(-c7ccc8c(c7)C(C)(C)C(=O)N8c7ccc(C#N)c(Cl)c7)c(F)n6)CC5)CC4)cc31)C(=O)N(C1CCC(=O)NC1=O)C2=O` (stereo not shown) [Compound 8] and `Cn1c2c(c3ccc(N4CCN(CC5CCN(c6ccc(-c7ccc8c(c7)C(C)(C)C(=O)N8c7ccc(C#N)c(Cl)c7)c(F)n6)CC5)CC4)cc31)C(=O)N(C1CCC(=O)NC1=O)C2=O` (stereo not shown) [Compound 5] cannot be ordered by DC50: 200 to 1000 nM for the first, ≥ 1000 nM for the second.

`Cn1c2c(c3ccc(N4CCN(CC5CCN(c6ccc(-c7ccc8c(c7)C(C)(C)C(=O)N8c7ccc(C#N)c(Cl)c7)nn6)CC5)CC4)cc31)C(=O)N(C1CCC(=O)NC1=O)C2=O` (stereo not shown) [Compound 11] and `CCn1c2c(c3ccc(N4CCN(CC5CCN(c6ccc(-c7ccc8c(c7)C(C)(C)C(=O)N8c7ccc(C#N)c(Cl)c7)c(F)n6)CC5)CC4)cc31)C(=O)N(C1CCC(=O)NC1=O)C2=O` (stereo not shown) [Compound 9] cannot be ordered by DC50: ≥ 1000 nM for the first, 200 to 1000 nM for the second.

`CCn1c2c(c3ccc(C4CCN(CC5CN(c6ccc(-c7ccc8c(c7)C(C)(C)C(=O)N8c7ccc(C#N)c(Cl)c7)c(F)n6)C5)CC4)cc31)C(=O)N(C1CCC(=O)NC1=O)C2=O` (stereo not shown) [Compound 3] and `Cn1c2c(c3ccc(OC4CCN(CC5CN(c6ccc(-c7ccc8c(c7)C(C)(C)C(=O)N8c7ccc(C#N)c(Cl)c7)c(F)n6)C5)CC4)cc31)C(=O)N(C1CCC(=O)NC1=O)C2=O` (stereo not shown) [Compound 2] cannot be ordered by DC50: 200 to 1000 nM for the first, ≥ 1000 nM for the second.

`CCn1c2c(c3ccc(OCCCN4CCN(c5ccc(-c6ccc7c(c6)C(C)(C)C(=O)N7c6ccc(C#N)c(Cl)c6)c(F)n5)CC4)cc31)C(=O)N(C1CCC(=O)NC1=O)C2=O` (stereo not shown) [Compound 4] and `CCn1c2c(c3ccc(OCCN4CCN(c5ccc(-c6ccc7c(c6)C(C)(C)C(=O)N7c6ccc(C#N)c(Cl)c6)c(F)n5)CC4)cc31)C(=O)N(C1CCC(=O)NC1=O)C2=O` (stereo not shown) [Compound 15] fall in the same range of DC50: 200 to 1000 nM for the first, 200 to 1000 nM for the second.
